Read-outs that look alike come from different tables or passages of the source.
How the values were obtained:
[1] = cited from earlier work
[2] = system: Human cervical cancer cell Hela; assay: Cell proliferative activity (MTT / cck-8); type: cell-based; conditions: incubated for 96 hours, read-out: Half-Inhibitory Concentration IC50 Human cervical cancer cell Hela
Protocol: (§1) Tumor cell line A375: human melanoma cell; H460: lung adenocarcinoma cell; Hela: human cervical cancer cell; HepG2: human liver cancer cell; and SKOV-3: human ovarian cancer cell, were all purchased from ATCC and cultured to logarithmic phase according to the cultivation protocol recommended by ATCC. The cells in the logarithmic phase were plated onto a 96-well plate at 2000-3000 cells/well; in the case of adherent cells, the cells should be adherent to the wall. […] After that, the cell proliferative activity was determined by MTT assay for the tumor cells representing the solid tumor model and by cck-8 assay for the tumor cells representing the hematologic tumor model.

[3] = system: Human liver cancer cell HepG2; assay: Cell proliferative activity (MTT / cck-8); type: cell-based; conditions: incubated for 96 hours, read-out: Half-Inhibitory Concentration IC50 Human liver cancer cell HepG2
Protocol: as §1

Human melanoma A375 = assay: Cell proliferative activity (MTT / cck-8); type: cell-based; conditions: A-375, incubated for 96 hours, read-out: Half-Inhibitory Concentration IC50 Human melanoma A375
Protocol: as §1

[4] = system: Human lung cancer cell H460; assay: Cell proliferative activity (MTT / cck-8); type: cell-based; conditions: NCI-H460, incubated for 96 hours, read-out: Half-Inhibitory Concentration IC50 Human lung cancer cell H460
Protocol: as §1

[5] = system: Human ovarian cancer cell SKOV-3; assay: Cell proliferative activity (MTT / cck-8); type: cell-based; conditions: SK-OV-3, incubated for 96 hours, read-out: Half-Inhibitory Concentration IC50 Human ovarian cancer cell SKOV-3
Protocol: as §1

HDAC6 = biological target: T1, HDAC6 (Homo sapiens, UniProt Q9UBN7); assay: HDAC inhibitory activity, fluorescence-coupled acetylated peptide substrate assay; type: biochemical
T1 sequence (Q9UBN7 1-1215): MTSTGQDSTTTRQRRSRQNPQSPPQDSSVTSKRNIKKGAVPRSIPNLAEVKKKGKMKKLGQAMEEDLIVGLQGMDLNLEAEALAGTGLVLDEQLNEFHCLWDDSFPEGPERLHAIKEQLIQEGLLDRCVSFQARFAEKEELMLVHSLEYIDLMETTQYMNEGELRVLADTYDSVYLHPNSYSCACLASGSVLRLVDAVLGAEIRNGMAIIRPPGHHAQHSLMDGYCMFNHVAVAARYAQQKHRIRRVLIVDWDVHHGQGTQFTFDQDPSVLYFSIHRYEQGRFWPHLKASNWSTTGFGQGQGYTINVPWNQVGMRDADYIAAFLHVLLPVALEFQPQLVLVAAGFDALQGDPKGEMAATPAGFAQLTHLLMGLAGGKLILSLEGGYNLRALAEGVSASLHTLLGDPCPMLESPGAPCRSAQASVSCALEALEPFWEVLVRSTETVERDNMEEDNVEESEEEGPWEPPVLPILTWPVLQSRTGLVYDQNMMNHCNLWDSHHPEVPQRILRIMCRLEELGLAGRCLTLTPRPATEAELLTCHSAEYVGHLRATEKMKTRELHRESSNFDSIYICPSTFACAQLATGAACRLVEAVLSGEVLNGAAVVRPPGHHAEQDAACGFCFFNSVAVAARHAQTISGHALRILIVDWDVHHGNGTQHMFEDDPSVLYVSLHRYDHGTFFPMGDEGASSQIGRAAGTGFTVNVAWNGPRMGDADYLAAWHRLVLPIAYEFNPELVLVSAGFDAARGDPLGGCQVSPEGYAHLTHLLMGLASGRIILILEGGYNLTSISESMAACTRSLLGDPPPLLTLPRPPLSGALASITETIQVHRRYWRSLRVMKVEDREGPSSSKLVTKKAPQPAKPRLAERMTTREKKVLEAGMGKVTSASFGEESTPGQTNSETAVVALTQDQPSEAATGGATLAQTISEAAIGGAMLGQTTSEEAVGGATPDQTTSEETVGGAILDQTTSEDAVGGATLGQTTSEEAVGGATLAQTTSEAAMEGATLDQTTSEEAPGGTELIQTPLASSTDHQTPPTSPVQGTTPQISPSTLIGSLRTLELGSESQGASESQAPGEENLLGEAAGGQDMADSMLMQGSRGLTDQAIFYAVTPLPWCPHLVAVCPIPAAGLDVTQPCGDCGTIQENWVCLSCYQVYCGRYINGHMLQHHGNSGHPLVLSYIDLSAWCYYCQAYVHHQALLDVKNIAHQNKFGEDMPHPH
Protocol: (§2) The HDAC inhibitory activity was determined by fluorescence-coupled acetylated peptide substrate assay (Lys-Ac-AMC). HDAC1 protein was purchased from BPS Bioscience, and the reaction buffer system was a modified tris(hydroxymethyl)aminomethane buffer (pH 7.0). The small molecule compounds of the present invention were prepared by being dissolved in 100% DMSO. HDAC was prepared in a buffer at a certain concentration as an enzyme solution; trypsin and fluorescent group 4-amino-7-coumarin coupled-acetylated peptide (Ac-peptide) substrate were prepared in a buffer at a certain concentration as a substrate solution. The compounds were added into the reaction wells in a 384-well plate at a designed concentration of 10 μM, 1 μM, 0.5 μM, 0.1 μM, 0.05 μM, 0.01 μM, 0.005 μM, 0.001 μM, and 0.00005 μM, respectively, and then 15 μl of the HDAC solution was added into the reaction wells (15 μl of blank buffer to the control well). […] The results were analyzed by GraphPad Prism software and IC50 values were calculated according to the formula: Y=Background Data+(Top Data−Background Data)/(1+10^((Log IC50−X) a curve slope)), where Y: the inhibition rate (%) and X: the concentration of the compound.

HDAC8 = biological target: T2, HDAC8 (Homo sapiens, UniProt Q9BY41); assay: as above
T2 sequence (Q9BY41 1-377): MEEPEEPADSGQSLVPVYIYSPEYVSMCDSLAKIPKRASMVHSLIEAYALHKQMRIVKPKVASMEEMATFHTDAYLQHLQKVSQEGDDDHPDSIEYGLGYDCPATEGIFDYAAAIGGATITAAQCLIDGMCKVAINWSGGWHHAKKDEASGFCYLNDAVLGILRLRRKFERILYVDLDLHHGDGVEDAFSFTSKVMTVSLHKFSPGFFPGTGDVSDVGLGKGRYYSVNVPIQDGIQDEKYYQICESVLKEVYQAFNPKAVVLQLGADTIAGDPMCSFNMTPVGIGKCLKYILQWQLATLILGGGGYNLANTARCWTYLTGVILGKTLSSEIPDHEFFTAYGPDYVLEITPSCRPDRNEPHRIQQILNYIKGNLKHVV
Protocol: as §2

HDAC1 = biological target: T3, HDAC1 (Homo sapiens, UniProt Q13547); assay: HDAC inhibitory activity, fluorescence-coupled acetylated peptide substrate assay (Lys-Ac-AMC); type: biochemical
T3 construct: purchased BPS Bioscience
T3 sequence (Q13547 whole entry): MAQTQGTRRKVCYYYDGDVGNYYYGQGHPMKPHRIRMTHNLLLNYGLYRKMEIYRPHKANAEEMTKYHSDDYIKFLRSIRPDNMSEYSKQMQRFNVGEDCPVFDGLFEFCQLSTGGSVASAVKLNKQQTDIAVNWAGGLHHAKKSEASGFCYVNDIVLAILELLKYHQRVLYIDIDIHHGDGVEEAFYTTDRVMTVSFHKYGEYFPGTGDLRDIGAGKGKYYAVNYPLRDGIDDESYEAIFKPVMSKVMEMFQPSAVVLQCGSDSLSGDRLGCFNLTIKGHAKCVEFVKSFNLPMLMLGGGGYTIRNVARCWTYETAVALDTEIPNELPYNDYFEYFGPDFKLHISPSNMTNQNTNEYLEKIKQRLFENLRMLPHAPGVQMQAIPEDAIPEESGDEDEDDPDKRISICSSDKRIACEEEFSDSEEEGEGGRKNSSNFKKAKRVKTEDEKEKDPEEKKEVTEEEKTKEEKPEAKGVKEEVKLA
Protocol: as §2

HCT116 cells = assay: Therapeutic effect on the colon cancer HCT116 model (intravenous); conditions: for survival time of mice: 9 times, vs blank control, P<0.01; for effect prolonging the survival time compared with positive control group: SAHA 50 mg/kg intraperitoneally

Compound	IC50 [2] [nM]	IC50 [3] [nM]	IC50 (Human melanoma A375) [nM]	IC50 [4] [nM]	IC50 [5] [nM]	IC50 (HDAC6; Table 2) [nM]	IC50 (HDAC8; IC50 HDAC8, Table 2) [nM]	IC50 (HDAC1; Table 2) [nM]	elimination half-life in human body ([1]; human, clinical trials) [h]	IC50 (HDAC6; Table 3) [nM]	Selection Ratio HDAC1/6 (HDAC6; ratio of IC50 HDAC1 to HDAC6)	Selection Ratio HDAC8/6 (HDAC6; ratio of IC50 HDAC8 to HDAC6)	IC50 (HDAC8; read-out: IC50 HDAC8, Table 3) [nM]	IC50 (HDAC1; Table 3) [nM]	survival time of mice (HCT116 cells; 50 mg/kg intravenously once every other day)	effect prolonging the survival time compared with positive control group (HCT116 cells; 50 mg/kg intravenously)	survival time of mice (HCT116 cells; 10 mg/kg intravenously once every other day)	effect prolonging the survival time compared with positive control group (HCT116 cells; 10 mg/kg intravenously)	incidence of medication-related adverse reactions above Phase III ([1]; clinical data)	toxic side effects ([1]; clinical data)
Nc1ccccc1NC(=O)c1ccc(CNC(=O)OCc2cccnc2)cc1 [Entinostat]	–	–	–	–	–	–	–	–	~100	–	–	–	–	–	–	–	–	–	–	–
Cc1nc(N(C)c2ccc(OCCCC(=O)NO)cc2)c2ccccc2n1 [II-2, N-hydroxy-4-(4-(methyl(2-methyl-4-quinazolinyl)amino)phenoxy)butanamide]	100 to 1000	10 to 100	100 to 1000	100 to 1000	10 to 100	100 to 1000	> 1000	10 to 100	–	196	0.4	7.5	1460	84	significantly prolonged the survival time of mice	superior to that of the positive control group	–	–	–	–
COc1ccc(N(C)c2nc(C)nc3ccccc23)cc1OCC(=O)NO [III-1, N-hydroxy-2-(2-methoxy-5-(methyl(2-methyl-4-quinazolinyl)amino)phenoxy) acetamide]	< 10	< 10	10 to 100	< 10	< 10	> 1000	> 1000	> 1000	–	–	–	–	–	–	–	–	significantly prolonged the survival time of mice	superior to that of the positive control group	–	–
CCCN(c1ccc(OC)c(OCCCC(=O)NO)c1)c1nc(C)nc2ccccc12 [IV-2, N-hydroxy-4-(2-methoxy-5-((2-methyl-4-quinazolinyl)(propyl)amino)phenoxy)butanamide]	> 1000	100 to 1000	100 to 1000	100 to 1000	100 to 1000	> 1000	> 1000	> 1000	–	–	–	–	–	–	–	–	–	–	–	–
CCCCCN(c1ccc(OC)c(OCCCC(=O)NO)c1)c1nc(C)nc2ccccc12 [IV-4, N-hydroxy-4-(2-methoxy-5-((2-methyl-4-quinazolinyl)(pentyl)amino)phenoxy)butanamide]	100 to 1000	100 to 1000	100 to 1000	> 1000	> 1000	10 to 100	> 1000	10 to 100	–	–	–	–	–	–	–	–	–	–	–	–
FK228	–	–	–	–	–	–	–	–	–	–	–	–	–	–	–	–	–	–	up to 66%	cardiotoxicity

The next lines start with results.

IC50 [2] [nM]	IC50 [3] [nM]	IC50 (Human melanoma A375) [nM]	IC50 [4] [nM]	IC50 [5] [nM]	IC50 (HDAC6; Table 2) [nM]	IC50 (HDAC8; IC50 HDAC8, Table 2) [nM]	IC50 (HDAC1; Table 2) [nM]	Compound	elimination half-life in human body ([1]; human, clinical trials) [h]	IC50 (HDAC6; Table 3) [nM]	Selection Ratio HDAC1/6 (HDAC6; ratio of IC50 HDAC1 to HDAC6)	Selection Ratio HDAC8/6 (HDAC6; ratio of IC50 HDAC8 to HDAC6)	IC50 (HDAC8; read-out: IC50 HDAC8, Table 3) [nM]	IC50 (HDAC1; Table 3) [nM]	survival time of mice (HCT116 cells; 50 mg/kg intravenously once every other day)	effect prolonging the survival time compared with positive control group (HCT116 cells; 50 mg/kg intravenously)	survival time of mice (HCT116 cells; 10 mg/kg intravenously once every other day)	effect prolonging the survival time compared with positive control group (HCT116 cells; 10 mg/kg intravenously)	incidence of medication-related adverse reactions above Phase III ([1]; clinical data)	toxic side effects ([1]; clinical data)
100 to 1000	100 to 1000	100 to 1000	100 to 1000	100 to 1000	10 to 100	> 1000	100 to 1000	COc1ccc(N(C)c2nc(C)nc3ccccc23)cc1OCCCCCC(=O)NO [III-4, N-hydroxy-6-(2-methoxy-5-(methyl(2-methyl-4-quinazolinyl)amino)phenoxy)hexanamide]	–	–	–	–	–	–	–	–	–	–	–	–
100 to 1000	100 to 1000	> 1000	100 to 1000	100 to 1000	10 to 100	> 1000	100 to 1000	Cc1nc(N(C)c2cccc(OCC(=O)NO)c2)c2ccccc2n1 [III-12, N-hydroxy-2-(3-(methyl(2-methyl-4-quinazolinyl)amino)phenoxy)acetamide]	–	–	–	–	–	–	–	–	–	–	–	–
100 to 1000	10 to 100	100 to 1000	100 to 1000	10 to 100	100 to 1000	> 1000	100 to 1000	Cc1nc(N(C)c2cccc(OCCCC(=O)NO)c2)c2ccccc2n1 [III-13, N-hydroxy-4-(3-(methyl(2-methyl-4-quinazolinyl)amino)phenoxy)butanamide]	–	–	–	–	–	–	–	–	–	–	–	–
10 to 100	10 to 100	100 to 1000	100 to 1000	10 to 100	100 to 1000	> 1000	100 to 1000	Cc1nc(N(C)c2cccc(OCCCCC(=O)NO)c2)c2ccccc2n1 [III-14, N-hydroxy-5-(3-(methyl(2-methyl-4-quinazolinyl)amino)phenoxy)pentanamide]	–	–	–	–	–	–	–	–	–	–	–	–
100 to 1000	100 to 1000	> 1000	100 to 1000	100 to 1000	10 to 100	> 1000	10 to 100	Cc1nc(N(C)c2cccc(OCCCCCC(=O)NO)c2)c2ccccc2n1 [III-15, N-hydroxy-6-(3-(methyl(2-methyl-4-quinazolinyl)amino)phenoxy)hexanamide]	–	–	–	–	–	–	–	–	–	–	–	–

Reference: US10532053B2, “Histone deacetylase inhibitor, and preparation method and use thereof” (GUANGDONG ZHONGSHENG PHARMACEUTICAL CO., LTD, priority 2015, dated 2020)
